Results: PubChem BioAssay (NCI)
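Tested at 5 concentrations; 48 h exposure; 96-well plates; endpoints linearly interpolated, else capped at highest concentration. Abbreviation: GI50, concentration required for 50% inhibition of growth. TGI denotes the concentration required for complete inhibition of growth.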

Tests used:
Assay in all cases: inhibition of tumour cell growth, NCI panel, 48 h
[1] = test system: OVCAR-5 ovarian
[2] = test system: MALME-3M melanoma
[3] = test system: EKVX NSCLC
[4] = test system: SK-MEL-28 melanoma
[5] = test system: MDA-MB-231 breast
[6] = test system: MDA-MB-435
[7] = test system: TK-10 renal
[8] = test system: 786-0 renal
[9] = test system: SK-MEL-2 melanoma
[10] = test system: RPMI-8226 leukemia
[11] = test system: SNB-75 CNS
[12] = test system: SK-MEL-5 melanoma
[13] = test system: LOX IMVI melanoma
[14] = test system: T-47D breast
[15] = test system: KM12 colon
[16] = test system: HOP-62 NSCLC
[17] = test system: MOLT-4 leukemia
[18] = test system: OVCAR-3 ovarian
[19] = test system: SNB-19 CNS
[20] = test system: NCI-H522 lung
[21] = test system: M14 melanoma
[22] = test system: HS 578T breast
[23] = test system: BT-549 breast
[24] = test system: PC-3 prostate
[25] = test system: A549 NSCLC
[26] = test system: SK-OV-3 ovarian
[27] = test system: OVCAR-8 ovarian
[28] = test system: MCF7 breast
[29] = test system: SN12C renal
[30] = test system: SF-268 CNS
[31] = test system: HCT-116 colon
[32] = test system: NCI-H23 lung
[33] = test system: SW-620 colon
[34] = test system: CAKI-1 renal
[35] = test system: NCI/ADR-RES ovarian
[36] = test system: CCRF-CEM leukemia
[37] = test system: SR leukemia
[38] = test system: UO-31 renal
[39] = test system: COLO 205 colon
[40] = test system: A498 renal
[41] = test system: NCI-H226 lung
[42] = test system: HT29 colon
[43] = test system: K-562 leukemia
[44] = test system: UACC-62 melanoma
[45] = test system: UACC-257 melanoma
[46] = test system: NCI-H460 lung
[47] = test system: SF-295 CNS
[48] = test system: U251 CNS
[49] = test system: IGROV1 ovarian
[50] = test system: HL-60(TB) leukemia
[51] = test system: HCT-15 colon
[52] = test system: ACHN renal
[53] = test system: RXF 393 renal
[54] = test system: HOP-92 NSCLC

For `COc1cccc2c1-c1c(c3ccc([N+](=O)[O-])cc3c(=O)n1CCCCl)C2=O`, the GI50 [1] was over 50 µM, the TGI [1] was over 50 µM and the GI50 [2] was 7.06 µM. It also gave a TGI [2] of over 50 µM, a GI50 [3] of over 50 µM and a TGI [3] of over 50 µM. The GI50 [4] was over 50 µM, the TGI [4] was over 50 µM and the GI50 [5] was 29.5 µM. It also gave a TGI [5] of over 50 µM, a GI50 [6] of over 50 µM and a TGI [6] of over 50 µM. The GI50 [7] was 11.8 µM, the TGI [7] was 38.9 µM and the GI50 [8] was 6.4 µM. For the same compound, the TGI [8] was 17.4 µM, the GI50 [9] was 48.8 µM and the TGI [9] was over 50 µM. It also gave a GI50 [10] of 3.69 µM, a TGI [10] of over 50 µM and a GI50 [11] of 11.6 µM. The TGI [11] was 32.3 µM, the GI50 [12] was 0.791 µM and the TGI [12] was over 50 µM. The GI50 [13] was 1.23 µM, the TGI [13] was over 50 µM and the GI50 [14] was over 50 µM. For the same compound, the TGI [14] was over 50 µM, the GI50 [15] was over 50 µM and the TGI [15] was over 50 µM. The GI50 [16] was 5.46 µM, the TGI [16] was 15.9 µM and the GI50 [17] was 2.23 µM. It also gave a TGI [17] of over 50 µM, a GI50 [18] of over 50 µM and a TGI [18] of over 50 µM. The GI50 [19] was 12.4 µM, the TGI [19] was over 50 µM and the GI50 [20] was 0.685 µM. The TGI [20] was over 50 µM, the GI50 [21] was 8.57 µM and the TGI [21] was over 50 µM. The GI50 [22] was 25.2 µM, the TGI [22] was over 50 µM and the GI50 [23] was 17.1 µM. The TGI [23] was over 50 µM, the GI50 [24] was 7.37 µM and the TGI [24] was over 50 µM. The GI50 [25] was over 50 µM, the TGI [25] was over 50 µM and the GI50 [26] was 21.1 µM. It also gave a TGI [26] of over 50 µM, a GI50 [27] of over 50 µM and a TGI [27] of over 50 µM. The GI50 [28] was 0.0614 µM, the TGI [28] was 0.327 µM and the GI50 [29] was 15.8 µM. It also gave a TGI [29] of over 50 µM, a GI50 [30] of 0.00993 µM and a TGI [30] of 3.96 µM. The GI50 [31] was 2.48 µM, the TGI [31] was over 50 µM and the GI50 [32] was 24.4 µM. It also gave a TGI [32] of over 50 µM, a GI50 [33] of 0.286 µM and a TGI [33] of over 50 µM. For the same compound, the GI50 [34] was 1.13 µM, the TGI [34] was 24.1 µM and the GI50 [35] was over 50 µM. The TGI [35] was over 50 µM, the GI50 [36] was 1.5 µM and the TGI [36] was over 50 µM. For the same compound, the GI50 [37] was 0.202 µM, the TGI [37] was over 50 µM and the GI50 [38] was 1.73 µM. The TGI [38] was over 50 µM, the GI50 [39] was over 50 µM and the TGI [39] was over 50 µM. It also gave a GI50 [40] of 17.4 µM, a TGI [40] of over 50 µM and a GI50 [41] of 5.82 µM. For the same compound, the TGI [41] was 41.5 µM, the GI50 [42] was over 50 µM and the TGI [42] was over 50 µM. It also gave a GI50 [43] of over 50 µM, a TGI [43] of over 50 µM and a GI50 [44] of 2.42 µM. For the same compound, the TGI [44] was 18.8 µM, the GI50 [45] was over 50 µM and the TGI [45] was over 50 µM. It also gave a GI50 [46] of 0.972 µM, a TGI [46] of over 50 µM and a GI50 [47] of 1.82 µM. The TGI [47] was over 50 µM.
`Oc1ccc(O)c(-c2cc(-c3ccccc3)nn2-c2ccccc2)c1` showed a GI50 [1] of 10.6 µM, a TGI [1] of 27 µM and a GI50 [3] of 16.9 µM. The TGI [3] was 37.7 µM, the GI50 [4] was 40.8 µM and the TGI [4] was over 100 µM. The GI50 [48] was 5.7 µM, the TGI [48] was 19.9 µM and the GI50 [5] was 30.3 µM. The TGI [5] was over 100 µM, the GI50 [6] was 18.4 µM and the TGI [6] was over 100 µM. For the same compound, the GI50 [7] was 14 µM, the TGI [7] was 71 µM and the GI50 [8] was 12.2 µM. For the same compound, the TGI [8] was 25.2 µM, the GI50 [9] was 34 µM and the TGI [9] was over 100 µM. It also gave a GI50 [49] of over 100 µM, a TGI [49] of over 100 µM and a GI50 [12] of 30.7 µM. For the same compound, the TGI [12] was over 100 µM, the GI50 [50] was 24.9 µM and the TGI [50] was over 100 µM. The GI50 [13] was 10.2 µM, the TGI [13] was 25 µM and the GI50 [14] was 19.6 µM. The TGI [14] was 98.4 µM, the GI50 [15] was 19.6 µM and the TGI [15] was over 100 µM. The GI50 [16] was 16.8 µM, the TGI [16] was 32.3 µM and the GI50 [17] was 60.5 µM. The TGI [17] was over 100 µM, the GI50 [18] was 22.8 µM and the TGI [18] was over 100 µM. It also gave a GI50 [19] of 23.9 µM, a TGI [19] of over 100 µM and a GI50 [20] of 31 µM. For the same compound, the TGI [20] was over 100 µM, the GI50 [21] was 12.4 µM and the TGI [21] was 25.4 µM. For the same compound, the GI50 [22] was 19.6 µM, the TGI [22] was 68 µM and the GI50 [23] was 13.4 µM. It also gave a TGI [23] of 33.7 µM, a GI50 [24] of 16.7 µM and a TGI [24] of over 100 µM. The GI50 [25] was 17.3 µM, the TGI [25] was 80.9 µM and the GI50 [51] was 17 µM. It also gave a TGI [51] of 42.6 µM, a GI50 [27] of 17.2 µM and a TGI [27] of 74 µM. For the same compound, the GI50 [28] was 6.55 µM, the TGI [28] was over 100 µM and the GI50 [29] was 17 µM. The TGI [29] was 45 µM, the GI50 [30] was 16.4 µM and the TGI [30] was 64.8 µM. For the same compound, the GI50 [31] was 9.71 µM, the TGI [31] was 21.8 µM and the GI50 [32] was 14.3 µM. It also gave a TGI [32] of 32.5 µM, a GI50 [33] of 26 µM and a TGI [33] of over 100 µM. The GI50 [34] was 30.6 µM, the TGI [34] was over 100 µM and the GI50 [52] was 14.4 µM. For the same compound, the TGI [52] was 29.7 µM, the GI50 [35] was 11.5 µM and the TGI [35] was 29.7 µM. It also gave a GI50 [38] of 38.6 µM, a TGI [38] of over 100 µM and a GI50 [39] of 24.9 µM. It also gave a TGI [39] of over 100 µM, a GI50 [53] of 31.3 µM and a TGI [53] of over 100 µM. For the same compound, the GI50 [41] was 18.7 µM, the TGI [41] was 51.4 µM and the GI50 [42] was 73.9 µM. For the same compound, the TGI [42] was over 100 µM, the GI50 [43] was 21.7 µM and the TGI [43] was over 100 µM. For the same compound, the GI50 [44] was 11.9 µM, the TGI [44] was 44.9 µM and the GI50 [54] was 88.9 µM. It also gave a TGI [54] of over 100 µM, a GI50 [45] of 18 µM and a TGI [45] of 52.1 µM. The GI50 [46] was 24.8 µM, the TGI [46] was over 100 µM and the GI50 [47] was 28.5 µM. For the same compound, the TGI [47] was over 100 µM.
